Experimental findings from PubChem BioAssay (NCI) are described below.

“And” between values parts separate entries of the source, which are not always exact repeats. Equal values may be shown once.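 Briefly, cells in 96-well plates were exposed to five compound concentrations for 48 h, and endpoints were estimated by linear interpolation. The concentration for 50% growth inhibition is given as GI50. Definition used: TGI = concentration required for complete inhibition of growth.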 Some results are limits rather than exact numbers.

Test systems include NCI/ADR-RES ovarian; NCI-H226 lung; HCT-15 colon; SR leukemia; NCI-H522 lung; OVCAR-8 ovarian; HT29 colon; SK-MEL-28 melanoma; OVCAR-5 ovarian; M14 melanoma.
Holding throughout (assay): growth of human tumour cells (NCI), 48 h

For `O=S1(=O)CS(=O)(=O)OCCCO1`, the TGI in the assay on NCI/ADR-RES ovarian, with NCI-H226 lung, in the assay with HCT-15 colon, with SR leukemia, in the assay on NCI-H522 lung and with OVCAR-8 ovarian was over 100 µM each time. In addition, the TGI in the assay on HT29 colon, in the assay with SK-MEL-28 melanoma, with OVCAR-5 ovarian and in the assay with M14 melanoma was over 100 µM throughout.
On to `CC(=O)OC[C@]12CC[C@@H]([C@@H](C)C(N)=O)[C@@H]1[C@H]1CC[C@@H]3[C@@]4(C)CC[C@H](OC(C)=O)C(C)(C)[C@@H]4CC[C@@]3(C)[C@]1(C)CC2`, for which the GI50 is 7.74 µM in the assay with NCI/ADR-RES ovarian; 7.28 µM in the assay with NCI-H226 lung; 4.04 µM with HCT-15 colon; 3.32 µM in the assay on SR leukemia; 4.94 µM in the assay with NCI-H522 lung; 5.44 µM with OVCAR-8 ovarian. In addition, the GI50 in the assay with HT29 colon was 3.73 µM; in the assay on SK-MEL-28 melanoma it was 12 µM; with OVCAR-5 ovarian, 14.4 µM; in the assay with M14 melanoma it was 7.38 µM. Moreover, the TGI with NCI/ADR-RES ovarian amounted to 27.2 µM; in the assay with NCI-H226 lung, 23.9 µM; with HCT-15 colon, 15.3 µM; in the assay with SR leukemia it was 23.5 µM; in the assay on NCI-H522 lung it was 20.7 µM; with OVCAR-8 ovarian it was 25.2 µM. The TGI in the assay with HT29 colon was 15.4 µM; with SK-MEL-28 melanoma, 27.3 µM; in the assay with OVCAR-5 ovarian, 32.2 µM; in the assay on M14 melanoma it was 31.6 µM.
As to `CC(=O)OCC1OC(OC2=C(CC=C(Cl)Cl)C(=O)c3ccccc3C2=O)C(OC(C)=O)C(OC(C)=O)C1OC(C)=O` (centres undefined), the GI50 in the assay with NCI/ADR-RES ovarian is 4.23 µM; with NCI-H226 lung, 15.6 µM; in the assay on HCT-15 colon it was 3.64 µM; in the assay on SR leukemia it was 3.11 µM; in the assay on NCI-H522 lung, 2.17 µM; in the assay on OVCAR-8 ovarian, 2.96 µM. Also, the GI50 with HT29 colon is 16 µM; in the assay with SK-MEL-28 melanoma, 3.93 µM; with OVCAR-5 ovarian it was 11.8 µM; in the assay on M14 melanoma it was 12.6 µM. Besides, the TGI in the assay on NCI/ADR-RES ovarian is 51.9 µM; in the assay with NCI-H226 lung it was 50.5 µM; with HCT-15 colon, 21.3 µM; with SR leukemia, over 100 µM; in the assay on NCI-H522 lung it was 5.2 µM; in the assay with OVCAR-8 ovarian, 8.29 µM. Also, the TGI in the assay with HT29 colon worked out at 60.5 µM; in the assay on SK-MEL-28 melanoma, 12.8 µM; in the assay with OVCAR-5 ovarian, 28.6 µM; with M14 melanoma, 28 µM.
Regarding `C/C(=C\CCc1ccoc1)CC/C=C(\C)CCCN1CCC(CO)CC1`, the GI50 was 3.69 µM in the assay on NCI/ADR-RES ovarian; 6.16 µM with NCI-H226 lung; 3.07 µM in the assay with HCT-15 colon; 1.66 µM in the assay on SR leukemia; 2.17 µM with NCI-H522 lung; 5.19 µM in the assay on OVCAR-8 ovarian. Also, the GI50 in the assay on HT29 colon is 2.26 µM; with SK-MEL-28 melanoma, 1.89 µM; in the assay with OVCAR-5 ovarian it was 4.39 µM; in the assay with M14 melanoma it was 1.94 µM. For the same molecule, the TGI with NCI/ADR-RES ovarian was determined as 14.6 µM; with NCI-H226 lung it was 22.3 µM; in the assay with HCT-15 colon, 12 µM; in the assay on SR leukemia it was 4.29 µM; in the assay with NCI-H522 lung, 5.83 µM; with OVCAR-8 ovarian, 19 µM. Moreover, the TGI with HT29 colon was 7.48 µM; in the assay on SK-MEL-28 melanoma, 4.03 µM; with OVCAR-5 ovarian, 18.6 µM; in the assay on M14 melanoma it was 3.92 µM.
With `CCN(CC)C(=S)SC1CCOP(=O)(N(CCCl)CCCl)N1C` (centres undefined), the TGI in the assay with NCI/ADR-RES ovarian is over 100 µM; with NCI-H226 lung it was over 97.3 µM; with HCT-15 colon, 91.5 µM; with SR leukemia, 50 µM; with NCI-H522 lung, 2.18 µM; in the assay on OVCAR-8 ovarian, 49.2 µM. Besides, the TGI was over 100 µM in the assay with HT29 colon, 42.2 µM in the assay on SK-MEL-28 melanoma, over 100 µM with OVCAR-5 ovarian and over 54.1 µM in the assay on M14 melanoma.
`CCc1c(Cl)nc(Cl)nc1Cl`: the TGI with NCI/ADR-RES ovarian was 11.3 µM; with NCI-H226 lung it was 0.283 µM; with HCT-15 colon, 0.601 µM; in the assay with SR leukemia it was over 100 µM; in the assay on NCI-H522 lung, 0.113 µM; in the assay on OVCAR-8 ovarian it was 44.4 µM. Moreover, the TGI amounted to 1.3 µM in the assay with HT29 colon, 5.54 µM in the assay with SK-MEL-28 melanoma, 1.3 µM with OVCAR-5 ovarian and 0.99 µM with M14 melanoma.
Take `COc1cc2c3c(n(C)c(=O)c2cc1OC)-c1cc2c(cc1/C3=C\CCCBr)OCO2`: the TGI with NCI/ADR-RES ovarian was over 100 µM; in the assay with NCI-H226 lung it was over 100 µM; with HCT-15 colon, over 86.8 µM; in the assay with SR leukemia, over 100 µM; in the assay on NCI-H522 lung, over 30.2 µM; in the assay with OVCAR-8 ovarian, over 48.7 µM. For the same molecule, the TGI in the assay with HT29 colon was over 100 µM; with SK-MEL-28 melanoma it was over 100 µM; in the assay on OVCAR-5 ovarian it was over 70.6 µM; in the assay with M14 melanoma it was over 100 µM. Besides, the GI50 was 77.5 µM in the assay with NCI-H226 lung; 34.8 µM in the assay with HCT-15 colon; 13.3 µM with SR leukemia; over 100 µM in the assay on HT29 colon; over 100 µM with SK-MEL-28 melanoma; 19.3 µM with OVCAR-5 ovarian. In the assay with M14 melanoma, the GI50 is over 96.6 µM.
As for `COc1cc([C@@H]2c3cc4c(cc3[C@H](O)[C@H]3COC(=O)[C@H]23)OCO4)cc(OC)c1OC`, the TGI was under 0.005 µM with NCI/ADR-RES ovarian; > 100 µM and 50 µM in the assay on HCT-15 colon; under 0.005 µM in the assay with SR leukemia; under 0.01 µM with NCI-H522 lung; > 100 µM and 50 µM and > 7.6 µM in the assay with OVCAR-8 ovarian; > 100 µM and 50 µM with SK-MEL-28 melanoma. In addition, the TGI with OVCAR-5 ovarian was > 100 µM and 46.3 µM. Further, the GI50 was under 0.01 µM in the assay on NCI-H226 lung; under 0.005 µM in the assay with HCT-15 colon; under 0.01 µM in the assay with SR leukemia; under 0.01 µM in the assay with NCI-H522 lung; under 0.01 µM in the assay with OVCAR-8 ovarian; under 0.01 µM with HT29 colon. The GI50 with SK-MEL-28 melanoma was under 0.01 µM; with M14 melanoma it was under 0.005 µM.
Regarding `C=C1CCC2C3(C)COC(c4ccc(SC)cc4)OC3CCC2(C)C1C/C=C1/C(=O)OCC1O` (centres undefined), the GI50 in the assay with NCI/ADR-RES ovarian is 2.78 µM; with NCI-H226 lung it was 7.85 µM; in the assay on HCT-15 colon, 2.37 µM; in the assay with SR leukemia it was 2.53 µM; in the assay on NCI-H522 lung, 1.92 µM; in the assay on OVCAR-8 ovarian it was 2.14 µM. The GI50 in the assay on HT29 colon is 2.42 µM; in the assay on SK-MEL-28 melanoma, 8.67 µM; in the assay on OVCAR-5 ovarian it was 10.3 µM; with M14 melanoma, 6.53 µM. In addition, the TGI in the assay with NCI/ADR-RES ovarian was 8.18 µM; in the assay with NCI-H226 lung, 25.7 µM; in the assay with HCT-15 colon it was 7.96 µM; in the assay with SR leukemia it was 8.04 µM; with NCI-H522 lung it was 5.98 µM; in the assay on OVCAR-8 ovarian, 6.56 µM. Also, the TGI stood at 7.02 µM with HT29 colon, 21.1 µM in the assay on SK-MEL-28 melanoma, 25.2 µM in the assay with OVCAR-5 ovarian and 17.7 µM with M14 melanoma.
On to `OC(COc1cccc2ccccc12)CN1CCN(c2ccccc2)CC1` (centres undefined), for which the GI50 in the assay with NCI/ADR-RES ovarian was 15.4 µM; in the assay on NCI-H226 lung it was 14.7 µM; in the assay with HCT-15 colon, 18.8 µM; in the assay with SR leukemia, 16.1 µM; in the assay on NCI-H522 lung, 14.4 µM; in the assay with OVCAR-8 ovarian, 17.3 µM. Also, the GI50 in the assay with HT29 colon is 15 µM; in the assay on SK-MEL-28 melanoma, 17 µM; in the assay on OVCAR-5 ovarian, 16.4 µM; in the assay on M14 melanoma, 15.5 µM. The TGI was 30.4 µM with NCI/ADR-RES ovarian; 29.7 µM in the assay on NCI-H226 lung; 35.7 µM in the assay on HCT-15 colon; 41.3 µM in the assay with SR leukemia; 29.2 µM with NCI-H522 lung; 32.1 µM in the assay on OVCAR-8 ovarian. Moreover, the TGI came to 30 µM with HT29 colon, 31.6 µM in the assay with SK-MEL-28 melanoma, 30.8 µM in the assay with OVCAR-5 ovarian and 29.7 µM in the assay with M14 melanoma.
For `COC(=O)c1ccc([N+](=O)[O-])c(O)c1`, the TGI in the assay on NCI/ADR-RES ovarian, with NCI-H226 lung, in the assay on HCT-15 colon, in the assay with SR leukemia, in the assay on NCI-H522 lung and in the assay with OVCAR-8 ovarian was over 100 µM in each case. In addition, the TGI with HT29 colon, in the assay on SK-MEL-28 melanoma, in the assay on OVCAR-5 ovarian and in the assay on M14 melanoma was over 100 µM throughout.
Regarding `Cc1cc(-c2nc(-c3ccc(OC(F)(F)F)cc3)no2)nn1Cc1ccnc(N2CCN(C3CC3)CC2)c1`, the GI50 with NCI/ADR-RES ovarian was 0.726 µM; with NCI-H226 lung, 12.2 µM; with HCT-15 colon it was 3.84 µM; in the assay with NCI-H522 lung it was 2.68 µM; with OVCAR-8 ovarian, over 44.4 µM; in the assay on HT29 colon, 5.26 µM. Further, the values for the GI50 with SK-MEL-28 melanoma, in the assay on OVCAR-5 ovarian and with M14 melanoma were 3.6 µM, over 37.5 µM and 2.69 µM, respectively. The TGI in the assay with NCI/ADR-RES ovarian was over 100 µM; in the assay on NCI-H226 lung it was over 100 µM; in the assay with HCT-15 colon it was over 62 µM; with SR leukemia it was over 74 µM; in the assay with NCI-H522 lung it was 58.1 µM; in the assay on OVCAR-8 ovarian, over 100 µM. Further, the TGI is over 56.9 µM in the assay with HT29 colon, over 40.2 µM in the assay on SK-MEL-28 melanoma, over 100 µM in the assay on OVCAR-5 ovarian and 20.4 µM with M14 melanoma.
For `CC1=C(/C=C/C(C)=C/C=C/C(C)=C/C(=O)Nc2ccc(O)cc2)C(C)(C)CCC1`, the GI50 in the assay on NCI/ADR-RES ovarian is 2.29 µM; in the assay with NCI-H226 lung it was 10.3 µM; in the assay with SR leukemia, 2.53 µM and 1.33 µM; in the assay with NCI-H522 lung, 0.262 µM; in the assay with OVCAR-8 ovarian it was 2.56 µM; with SK-MEL-28 melanoma, 2.87 µM. Moreover, the GI50 in the assay on OVCAR-5 ovarian is 12.5 µM; in the assay with M14 melanoma it was 4.05 µM. For the same molecule, the TGI in the assay with NCI/ADR-RES ovarian is 7.07 µM and 18.4 µM; in the assay on NCI-H226 lung, 23.9 µM and 16.7 µM; with HCT-15 colon, 17.9 µM and 25.2 µM; with SR leukemia, 6.02 µM and 5.97 µM; in the assay on NCI-H522 lung it was 0.787 µM and 2.82 µM; in the assay on OVCAR-8 ovarian, 8.48 µM and 10.2 µM. The TGI in the assay with HT29 colon was 7.6 µM and 14.9 µM; in the assay on SK-MEL-28 melanoma, 8.69 µM and 12.1 µM; in the assay with OVCAR-5 ovarian, 26.8 µM and 24 µM; in the assay with M14 melanoma, 12.7 µM and 18.7 µM.
